Reference: patent US20250213585A1, “COMPOSITIONS AND METHODS OF A CONCOMITANT THERAPY OF ALTERNATING ELECTRIC FIELDS AND NOTCH-1 INHIBITOR” (NOVOCURE GMBH, priority 2023, published 2025)
Entries after “also recorded” stand apart in the source; their conditions may differ.

How the values were obtained:
cells = test: Combination of Notch1 inhibitor with an alternating electric field (FIGS. 4, 8); type: cell-based
Notch1 protein = test: TTFields-mediated degradation of Notch1 protein with degradation pathway inhibitors (FIG. 11E); type: cell-based; details: TTFields treatment
Source text: Reduction of Notch1 level by TTFields was also confirmed by immunofluorescence staining (FIGS. 11C and D). The intracellular protein degradation mechanism primarily involves proteasomal and lysosomal degradation pathways. To further elucidate the mechanism of TTFields-mediated degradation of Notch1 protein, lysosomal inhibitor Leupeptin and proteasomal inhibitor MG132 were employed (FIG. 11E). […] Lysosomal degradation of proteins, particularly those located on cell membrane such as Notch1, often involves cell membrane.
Protein levels were evaluated through Western Blot analysis, following the established protocol. The antibodies employed in the study are listed below. Rabbit notch1 (Abcam, ab52627), Rabbit Cleaved Notch1 (CST, 4147S), Mouse anti-GAPDH (Abclonal, A19056), Rabbit anti-Tubulin (Abclonal, AC015), Rabbit anti-Hes1 (ab108937), rabbit anti-Hes5 (Abclonal A16237), rabbit anti-Hey1 (Abclonal A16110), rabbit anti-Myc (Selleck, A5011), anti-rabbit CD133 (Abcam, ab19898), anti-mouse Sox2 (Abcam, ab79351), anti-Rabbit Nestin (Abcam), and Anti-mouse lamp1.

U251 = test: Cell viability of glioblastoma cell line U251 (FIGS. 6, 7); type: cell-based
Procedure: (§1) For short-term experiments, such as detecting the degradation process of glioblastoma cells under TTFields, U87, U251, LN229, and T98 cell suspensions (450 μL, 100,000 cells per well) were evenly spread on 24 mm cell culture slides. After overnight incubation, the cells were transferred to in vitro dishes and supplemented with 2 mL fresh culture medium. The treatment frequency was 200 kHz, with a treatment field strength of 1.62 V/cm RMS, for a duration of 24 hours. For long-term combination experiments, involving the combined use of RO4929097 or Notch1 gene knockdown with TTFields, cells (450 μL, 40,000 cells per well) were treated with a field strength of 1.19 V/cm RMS and a frequency of 200 kHz for 72 hours. The concentration of RO4929097 drug was varied. For organoid experiments, 3-5 GBOs were added to each well, and fresh GBO medium was replaced. The treatment field strength was 1.19 V/cm RMS, with a frequency of 200 kHz, for treatment durations of 24 and 48 hours.

glioblastoma = details: cited from earlier work
glioma cells [1] = test: Clonogenic (colony formation) assay after treatment (FIGS. 5, 10D); type: cell-based
Procedure: as §1, with “48 hours. Following treatment with TTFields and corresponding conditions, 500-1000 cells were selected from each group and seeded in 6-well dishes. The cells were cultured at 37 degrees Celsius with 5% CO2 for a period of 7-10 days, with medium replacement every 3 days. […]” for “48 hours.”

U87 = test: Cell viability of glioblastoma cell line U87 (FIGS. 6, 7); type: cell-based
Procedure: as §1

[2] = tested on: patient-derived glioblastoma organoids (GBOs); test: EdU staining of patient-derived glioblastoma organoids with TTFields (FIG. 13I); type: cell-based
Procedure: as §1

glioma cells [3] = test: Sensitization of glioma cells to temozolomide (FIGS. 7, 10E); type: cell-based; details: Notch1 inhibitor in combination with temozolomide
[4] = tested on: glioma cell lines including U87, U251, and LN229; test: Validation assays with TTFields in glioma cell lines (EdU incorporation, cell counting; FIGS. 10A-C); type: cell-based
Procedure: It was first analyzed whether Notch1 antagonization sensitized glioma cell lines to TTFields treatment. Validation assays were conducted across multiple glioma cell lines including U87, U251, and LN229. The Notch1 inhibitor RO4929097 was used to probe whether it synergizes with TTFields. […] In the validation assays, experimental cohorts were divided into four groups: control (DMSO), TTFields treatment alone, Notch1 inhibitor RO4929097, and TTFields plus RO4929097.
as §1

[5] = 5 μM Notch1 inhibitor alone, FIG. 6
[6] = 5 μM Notch1 inhibitor alone, FIG. 7
[7] = 20 μM Notch1 inhibitor alone, FIG. 6
[8] = 20 μM Notch1 inhibitor alone, FIG. 7
[9] = 250 μM Temozolomide and 5 μM Notch1 inhibitor concomitant, FIG. 7
[10] = 250 μM Temozolomide and 20 μM Notch1 inhibitor concomitant, FIG. 7
[11] = TTFields and 5 μM Notch1 inhibitor concomitant, FIG. 6
[12] = TTFields and 20 μM Notch1 inhibitor concomitant, FIG. 6
[13] = phase I and II clinical trials for glioblastoma

## C[C@H](NC(=O)Cc1cc(F)cc(F)c1)C(=O)N[C@H](C(=O)OC(C)(C)C)c1ccccc1 [DAPT]
cells; DAPT combined with an alternating electric field, FIG. 8
  therapeutic efficacy of the alternating electric field: enhances the therapeutic efficacy

## CC(=O)N[C@@H](CC(C)C)C(=O)N[C@@H](CC(C)C)C(=O)N[C@H](C=O)CCCNC(=N)N [Leupeptin]
Notch1 protein
  effect on TTFields-induced degradation of Notch1 protein: blocked

## CC(C)(C(=O)NCC(F)(F)C(F)(F)F)C(=O)N[C@@H]1C(=O)Nc2ccccc2-c2ccccc21 [RO4929097]
U251; [5]
  cell viability: no change in viability
U251; [6]
  cell viability: no change in viability
U251; [7]
  cell viability: around 60%
U251; [8]
  cell viability: around 80%
U251; [9]
  cell viability: no change in viability
U251; [10]
  cell viability: no change in viability
U251; [11]
  cell viability: 20%
U251; [12]
  cell viability: 20%
glioblastoma; glioblastoma / recurrent GB patients
  safety profile: favorable safety profile
glioblastoma; [13]
  blood-brain barrier penetration: favorable blood-brain barrier penetration
  expression of Notch1 downstream genes in tumor cells: reduce expression of Notch1 downstream genes
Glioma cells [1]; Notch1 inhibitor alone, FIG. 5
  colonogenic abilities following re-seeding after treatment: no significant impact
Glioma cells [1]; Notch1 inhibitor combined with TTFields / alternating electric field, re-seeding after treatment
  clonogenic ability / long-term proliferative potential: synergy; also recorded: sensitization effect
U87; [5]
  cell viability: 80%
U87; [6]
  cell viability: no change in viability
U87; [7]
  cell viability: around 60%
U87; [8]
  cell viability: around 80%
U87; [9]
  cell viability: no change in viability
U87; [10]
  cell viability: no change in viability
U87; [11]
  cell viability: 20%
U87; [12]
  cell viability: 20%
cells; RO4929097 combined with an alternating electric field, low-intensity, long duration, FIGS. 4 and 5
  sensitization of alternating electric field therapy: sensitizes alternating electric field therapy
[2]; Notch1 inhibitor alone
  cytotoxicity by Edu staining in GBOs: no apparent cytotoxicity
[2]; combined with TTFields
  effect with TTFields by Edu staining in GBOs: clear synergistic effect
Glioma cells [3]
  sensitization to / killing by temozolomide (TMZ): did not sensitize
Glioma cells [3]; listed as Notch1 inhibitor
  sensitization to / killing by temozolomide (TMZ): no effect
Glioma cells [3]; listed as RO
  sensitization to / killing by temozolomide (TMZ): does not enhance killing
[4]; RO4929097 alone, FIGS. 10A and B
  cytotoxicity in EdU incorporation assays: minimal cytotoxicity
[4]; RO4929097 combined with TTFields, FIGS. 10A and B
  therapeutic sensitization in EdU incorporation assays: noticeable enhancement in therapeutic sensitization
[4]; combined with TTFields, FIG. 10 legend
  growth suppression by TTFields: enhances growth suppression

## Cn1nnc2c(C(N)=O)ncn2c1=O [Temozolomide]
U251; Homo sapiens, U-251, 250 μM Temozolomide alone, FIG. 7
  viability at 250 µM: 75%
U87; Homo sapiens, U-87 MG, 250 μM Temozolomide alone, FIG. 7
  viability at 250 µM: 75%
